Assay results: a compilation of properties of binary mixtures (doi:10.1016/j.molliq.2018.05.059)

Assay: xn = mol fraction of the nth substance listed
Settings: 298 K, 101 kPa

**Q.** What does the source list for `CC(=O)[O-].CCC[N+]1(C)CCN(C)CC1` + CC#N?
**A.** electrical conductivity (x2 = 0.806): 1.82 S/m; electrical conductivity (x2 = 0.819): 1.89 S/m; electrical conductivity (x2 = 0.832): 1.95 S/m; electrical conductivity (x2 = 0.843): 1.98 S/m; electrical conductivity (x2 = 0.852): 1.98 S/m; electrical conductivity (x2 = 0.859): 2.04 S/m; electrical conductivity (x2 = 0.874): 2.01 S/m; electrical conductivity (x2 = 0.884): 2.04 S/m; electrical conductivity (x2 = 0.895): 2.06 S/m; electrical conductivity (x2 = 0.902): 2.06 S/m; electrical conductivity (x2 = 0.919): 2.04 S/m; electrical conductivity (x2 = 0.931): 2.01 S/m; electrical conductivity (x2 = 0.937): 1.94 S/m; electrical conductivity (x2 = 0.95): 1.85 S/m

**Q.** With `CC(O)C(=O)[O-].CCC[N+]1(C)CCN(C)CC1` + CC#N as the compound, how does the electrical conductivity (x2 = 0.808) read?
**A.** 1.52 S/m

**Q.** And the electrical conductivity (x2 = 0.835)?
**A.** 1.72 S/m

**Q.** And the electrical conductivity (x2 = 0.856)?
**A.** 1.83 S/m

**Q.** What about the electrical conductivity (x2 = 0.872) of the same compound?
**A.** 1.91 S/m

**Q.** What about the electrical conductivity (x2 = 0.89) of the same compound?
**A.** 1.99 S/m

**Q.** What about the electrical conductivity (x2 = 0.898) of the same compound?
**A.** 1.99 S/m

**Q.** And the electrical conductivity (x2 = 0.907)?
**A.** 2.04 S/m

**Q.** What about the electrical conductivity (x2 = 0.918) of the same compound?
**A.** 2.05 S/m

**Q.** And the electrical conductivity (x2 = 0.927)?
**A.** 2.05 S/m

**Q.** And the electrical conductivity (x2 = 0.939)?
**A.** 2.01 S/m

**Q.** And the electrical conductivity (x2 = 0.945)?
**A.** 1.96 S/m
